Data reported in ChEMBL document CHEMBL1671704, “Defining the role of mutations in Plasmodium vivax dihydrofolate reductase-thymidylate synthase gene using an episomal Plasmodium falciparum transfection system” (Antimicrob Agents Chemother, 2010).

How the values were obtained:
Plasmodium falciparum [1] = experiment: Antimalarial activity against Plasmodium falciparum D6 harboring Plasmodium vivax DHFR F57L and S117N mutant infected in RBCs assessed as inhibition of [3H]hypoxanthine incorporation after 72 hrs; format: functional, organism-based
Plasmodium falciparum [2] = experiment: Antimalarial activity against Plasmodium falciparum D6 harboring Plasmodium vivax DHFR S58R, T61M and S117N mutant infected in RBCs assessed as inhibition of [3H]hypoxanthine incorporation after 72 hrs; format: functional, organism-based
Plasmodium falciparum [3] = experiment: Antimalarial activity against Plasmodium falciparum TM91c235 harboring DHFR F57L, S58R, T61M, S117T mutant infected in RBCs assessed as inhibition of [3H]hypoxanthine incorporation after 72 hrs; format: functional, organism-based
Plasmodium falciparum [4] = experiment: Antimalarial activity against Plasmodium falciparum D6 harboring Plasmodium vivax DHFR S117N mutant infected in RBCs assessed as inhibition of [3H]hypoxanthine incorporation after 72 hrs; format: functional, organism-based
Plasmodium falciparum [5] = experiment: Antimalarial activity against Plasmodium falciparum D6 infected in RBCs assessed as inhibition of [3H]hypoxanthine incorporation after 72 hrs; format: functional, organism-based
Plasmodium falciparum [6] = experiment: Antimalarial activity against Plasmodium falciparum D6 harboring Plasmodium vivax DHFR S58R and S117N mutant infected in RBCs assessed as inhibition of [3H]hypoxanthine incorporation after 72 hrs; format: functional, organism-based
Plasmodium falciparum [7] = experiment: Ratio of IC50 for Plasmodium falciparum TM91c235 harboring DHFR F57L, S58R, T61M, S117T mutant to IC50 for Plasmodium falciparum D6; format: functional
Plasmodium falciparum [8] = experiment: Ratio of IC50 for Plasmodium falciparum D6 harboring Plasmodium vivax DHFR F57L, S58R, T61M, S117T mutant to IC50 for Plasmodium falciparum D6 harboring Plasmodium vivax wild type DHFR; format: functional
Plasmodium falciparum [9] = experiment: Ratio of IC50 for Plasmodium falciparum D6 harboring Plasmodium vivax DHFR S58R, T61M and S117N mutant to IC50 for Plasmodium falciparum D6 harboring Plasmodium vivax wild type DHFR; format: functional
Plasmodium falciparum [10] = experiment: Ratio of IC50 for Plasmodium falciparum D6 harboring Plasmodium vivax DHFR S117N mutant to IC50 for Plasmodium falciparum D6 harboring Plasmodium vivax wild type DHFR; format: functional
Plasmodium falciparum [11] = experiment: Ratio of IC50 for Plasmodium falciparum D6 harboring Plasmodium vivax DHFR S58R and S117N mutant to IC50 for Plasmodium falciparum D6 harboring Plasmodium vivax wild type DHFR; format: functional
Plasmodium falciparum [12] = experiment: Antimalarial activity against Plasmodium falciparum D6 harboring Plasmodium vivax wild type DHFR infected in RBCs assessed as inhibition of [3H]hypoxanthine incorporation after 72 hrs; format: functional, organism-based
Plasmodium falciparum [13] = experiment: Antimalarial activity against Plasmodium falciparum D6 harboring Plasmodium vivax DHFR F57L, S58R, T61M, S117T mutant infected in RBCs assessed as inhibition of [3H]hypoxanthine incorporation after 72 hrs; format: functional, organism-based
Plasmodium falciparum [14] = experiment: Ratio of IC50 for Plasmodium falciparum D6 harboring Plasmodium vivax DHFR F57L and S117N mutant to IC50 for Plasmodium falciparum D6 harboring Plasmodium vivax wild type DHFR; format: functional

## CC1(C)N=C(N)N=C(N)N1OCc1ccc(Cl)c(Cl)c1 [CLOCIGUANIL]
Plasmodium falciparum [1]
  IC50: 0.219 nM
Plasmodium falciparum [2]
  IC50: 0.073 nM
Plasmodium falciparum [3]
  IC50: 3.16 nM
Plasmodium falciparum [4]
  IC50: 0.067 nM
Plasmodium falciparum [5]
  IC50: 0.021 nM
Plasmodium falciparum [6]
  IC50: 0.582 nM
Plasmodium falciparum [7]
  Ratio IC50: 144
Plasmodium falciparum [8]
  Ratio IC50: 2565
Plasmodium falciparum [9]
  Ratio IC50: 3
Plasmodium falciparum [10]
  Ratio IC50: 6
Plasmodium falciparum [11]
  Ratio IC50: 26
Plasmodium falciparum [12]
  IC50: 0.022 nM
Plasmodium falciparum [13]
  IC50: 56.4 nM
Plasmodium falciparum [14]
  Ratio IC50: 10

## CC1(C)N=C(N)N=C(N)N1OCCCOc1cc(Cl)c(Cl)cc1Cl
Plasmodium falciparum [1]
  IC50: 1.5 nM
Plasmodium falciparum [2]
  IC50: 0.105 nM
Plasmodium falciparum [3]
  IC50: 0.339 nM
Plasmodium falciparum [4]
  IC50: 0.427 nM
Plasmodium falciparum [5]
  IC50: 0.166 nM
Plasmodium falciparum [6]
  IC50: 0.69 nM
Plasmodium falciparum [7]
  Ratio IC50: 5
Plasmodium falciparum [8]
  Ratio IC50: 44
Plasmodium falciparum [9]
  Ratio IC50: 2
Plasmodium falciparum [10]
  Ratio IC50: 6
Plasmodium falciparum [11]
  Ratio IC50: 10
Plasmodium falciparum [12]
  IC50: 0.067 nM
Plasmodium falciparum [13]
  IC50: 2.93 nM
Plasmodium falciparum [14]
  Ratio IC50: 22

## CCc1nc(N)nc(N)c1-c1ccc(Cl)cc1 [PYRIMETHAMINE]
Plasmodium falciparum [1]
  IC50: 3.66 nM
Plasmodium falciparum [2]
  IC50: 2.81 nM
Plasmodium falciparum [3]
  IC50: 143 nM
Plasmodium falciparum [5]
  IC50: 0.028 nM
Plasmodium falciparum [6]
  IC50: 6.26 nM
Plasmodium falciparum [12]
  IC50: 0.055 nM
Plasmodium falciparum [13]
  IC50: 467 nM

## CC1(C)N=C(N)N=C(N)N1c1ccc(Cl)cc1 [CYCLOGUANIL]
Plasmodium falciparum [1]
  IC50: 2.77 nM
Plasmodium falciparum [2]
  IC50: 0.587 nM
Plasmodium falciparum [3]
  IC50: 116 nM
Plasmodium falciparum [4]
  IC50: 0.81 nM
Plasmodium falciparum [5]
  IC50: 0.118 nM
Plasmodium falciparum [6]
  IC50: 1.7 nM
Plasmodium falciparum [7]
  Ratio IC50: 50
Plasmodium falciparum [8]
  Ratio IC50: 746
Plasmodium falciparum [9]
  Ratio IC50: 1
Plasmodium falciparum [10]
  Ratio IC50: 2
Plasmodium falciparum [11]
  Ratio IC50: 4
Plasmodium falciparum [12]
  IC50: 0.429 nM
Plasmodium falciparum [13]
  IC50: 320 nM
Plasmodium falciparum [14]
  Ratio IC50: 6
